The values below come from US8927572B2, “Crystal form I of salt of a dipeptidyl peptidase-IV inhibitor and preparation method and use thereof” (Xuanzhu Pharma Co., Ltd., priority 2011, dated 2015).

SMILES strings stand for the structures. Where a name gives a salt, the structure may show the parent alone.

The nature of series [1]: Investigation on the water solubility. The class given is physicochemical. From the text:
Investigation on the Water Solubility of Crystal Form I of Dihydrochloride Salt of Compound A

The target in a further series is DPP-IV (Homo sapiens, UniProt P27487). The conditions noted are these: background; described in CN201010291056.9; cited from earlier work.
The nature of series [2]: Influence factor stability test (high temperature, high humidity, light irradiation). The class given is physicochemical. The method, then:
The crystal form I of dihydrochloride salt of Compound A prepared from Example 1.
The Test Conditions for Investigating the Influencing Factors:
Each of the test samples was placed at a high temperature of 60° C. (packed with an plastic bag for packing drugs as the inner layer and an aluminium foil as the outer layer), a high humidity of RH75%±5% (uniformly spread on a dry and clean watch glass), and a light irradiation of 4500 Lx±500 Lx (uniformly spread on a dry and clean watch glass). Sampling was performed on Day 5 and Day 10 respectively, and Relevant Substance and the content of Compound A were measured and compared with those of the sample on Day 0.
(§1) The content was measured by using an External Standard method in accordance with the High Performance Liquid Chromatography in Chinese Pharmacopoeia, Appendix V D, Edition 2010.
(§2) Measurement of Relevant Substance
(§3) The Relevant Substance was measured by using an Area Normalization method in accordance with the High Performance Liquid Chromatography in Chinese Pharmacopoeia, Appendix V D, Edition 2010.

A further series can be described thus: Long-term stability test. The following applies: for Content of Compound A (%) / Content of Relevant Substance (%) / Properties: 25° C.±2° C., RH 60%±10%. It is filed as physicochemical. The method, then: The Test Conditions for Investigating the Long-Term Stability:
Each of the test samples was placed at a temperature of 25° C.±2° C. and a humidity of RH 60%±10%. Sampling was performed at the end of Months 3, 6, 9, 12 and 18 respectively, and Relevant Substance and the content of Compound A were measured and compared with those of the sample on Day 0. During the investigation, the sample was packed with a plastic bag for packing drugs as the inner layer and an aluminium foil as the outer layer.
as §1, §2, §3

The next series has as its system blood glucose. As to the kind of experiment: Oral Glucose Tolerance Test (OGTT) in mice. It is filed as in vivo, Mice C57BL/6. The conditions noted are these: for inhibition ratio for the blood glucose AUC: glucose 3 g/kg. The method, then: (§4) Test sample: the crystal form I of dihydrochloride salt of Compound A prepared from Example 1.
Experimental animals: Mice C57BL/6, quantity 40.
On the day before the test, the food for mice was removed at 5 p.m., and the mice were fasted overnight. On the second day, the fasting blood glucose of each mouse was checked at 9 a.m. and recorded as −30 min blood glucose. The body weight was weighed and recorded. After balancing the blood glucose level and body weight, the mice were randomly divided into four groups, namely Background Control group, Vehicle Control group, Dosing group 1 and Dosing group 2. To the later three groups, a vehicle (0.9% sodium chloride injection solution), 1 mg/kg test sample and 3 mg/kg test sample was administered respectively, and the volume administered was 10 mL/kg. The blood glucose of each mouse was measured and recorded as 0 min blood glucose 30 minutes after the intragastric administration. Afterwards glucose was further administered via intragastric administration at a dose of 3 g/kg to the Vehicle Control group, Dosing group 1 and Dosing group 2, and 0.9% sodium chloride injection solution was administered via intragastric administration to the Background Control group at an intragastric administration volume of 10 mL/kg. Then, the blood glucose levels were measured at 20, 40, 60 and 120 minutes after the administration of glucose or sodium chloride solution.
Analysis and Processing of the Data:
The area under the time-blood glucose curve of the OGTT (Oral Glucose Tolerance Test) (AUC) was calculated. A net variable AUC (ΔAUC) was obtained by subtracting the AUC of Background Control group from that of Vehicle Control group, Dosing groups 1 and 2. The inhibition ratio (%)=100×(ΔAUCVehicle Control group-ΔAUC)/ΔAUCVehicle Control group, wherein ΔAUC is the net variable AUC of each Dosing group, and ΔAUCVehicle Control group is the net variable AUC of Vehicle Control group. The data of Dosing groups were compared with that of Vehicle Control group by using t-test value analysis, and the difference was considered significant at p<0.05.

The nature of series [3]: In vivo pharmacokinetics in SD rats. Further details: species or system SD (Sprague Dwaley) rats. Here is the method: as §4
Experimental Animals: SD (Sprague Dwaley) rats, quantity 12.
The SD rats were divided into two groups, namely Intravenous Injection group and Intragastric Administration group, and there were 6 rats in each group in which one half were female and the other were male. The dose administrated was always 10 mg/kg (in terms of Compound A). The volume administered by the intravenous injection route was 5 mL/kg, and the volume administered by the intragastric administration route was 10 mL/kg. The time points for sequential blood sampling were 0 minutes before administration (0 min), and 5 min, 15 min, 30 min, 1 h, 2 h, 4 h, 6 h, 8 h, 12 h and 24 h after administration. About 150 μL of blood was collected into a sodium heparin anticoagulation tube from the caudal vein or Inner canthus vein after administration. The whole blood was placed in a high-speed refrigerated centrifuge (8000 rpm, 0-4° C.) and centrifuged for 6 min. The supernatant of the blood plasma was separated and stored in a refrigerator for measurement. The centrifugation of all blood samples was completed within 30 min after blood collection. The concentration of Compound A in the blood plasma of SD rats was determined by LC-MS/MS method.
Analysis and processing of Data: The plasma concentration—time curve was plotted, and the pharmacokinetic parameters were calculated by using the non-compartment model in Phrsight Phoenix 6.1.

[4] abbreviates: intravenous injection, 10 mg/kg (in terms of Compound A).

Chain of DPP-IV (P27487 whole entry, species assumed): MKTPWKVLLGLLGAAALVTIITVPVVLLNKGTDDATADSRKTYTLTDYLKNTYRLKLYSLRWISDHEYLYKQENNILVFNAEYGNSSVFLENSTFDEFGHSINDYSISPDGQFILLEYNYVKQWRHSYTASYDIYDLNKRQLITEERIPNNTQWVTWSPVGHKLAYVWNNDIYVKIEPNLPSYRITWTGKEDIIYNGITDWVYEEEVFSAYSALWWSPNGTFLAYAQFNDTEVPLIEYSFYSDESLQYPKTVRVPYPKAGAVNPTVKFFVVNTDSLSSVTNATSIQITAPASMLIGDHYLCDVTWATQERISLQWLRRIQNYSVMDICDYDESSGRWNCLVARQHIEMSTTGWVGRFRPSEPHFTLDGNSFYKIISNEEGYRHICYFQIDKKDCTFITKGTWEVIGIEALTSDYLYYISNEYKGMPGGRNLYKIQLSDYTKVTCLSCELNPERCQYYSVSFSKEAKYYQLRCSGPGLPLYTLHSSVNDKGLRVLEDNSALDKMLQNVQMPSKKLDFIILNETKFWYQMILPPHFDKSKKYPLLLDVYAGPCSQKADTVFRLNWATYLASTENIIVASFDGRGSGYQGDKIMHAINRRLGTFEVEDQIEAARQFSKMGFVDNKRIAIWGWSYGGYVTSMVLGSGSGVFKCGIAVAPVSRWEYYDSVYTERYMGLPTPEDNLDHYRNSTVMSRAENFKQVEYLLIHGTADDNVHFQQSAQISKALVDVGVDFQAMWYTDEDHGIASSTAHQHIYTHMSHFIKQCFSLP

Take `Cc1cc(N2CCC[C@@H](N)C2)c2c(n1)n(C)c(=O)n2Cc1ccccc1C#N` [Compound A, (R)-2-[[7-(3-aminopiperidin-1-yl)-3,5-dimethyl-2-oxo-2,3-dihydro-1H-imidazo[4,5-b]pyridin-1-yl]methyl]benzonitrile]: in series [1], the Water solubility was less than 0.1 mg/mL and the “Water solubility (in words)” value is listed as “hardly dissolved or insoluble in water”. Further, on DPP-IV, the “inhibitory effect for DPP-IV (in words)” value is reported as “strong inhibitory effect” and the “selectivity for DPP-IV (in words)” value was “very high selectivity”.
In turn, `Cc1cc(N2CCC[C@@H](N)C2)c2c(n1)n(C)c(=O)n2Cc1ccccc1C#N` [crystal form I of dihydrochloride salt of Compound A] displayed a Water solubility in series [1] of more than 1000 mg/mL. Further, in series [1], the “Water solubility (in words)” value is recorded as “dissolved very easily in water”. Further, the “Content of Compound A (%)” value in series [2] (60° C., Day 5) was 98.80%; in series [2] (60° C., Day 10) it was 99.42%; in series [2] (4500Lx ± 500Lx, Day 5) it was 98.09%; in series [2] (4500Lx ± 500Lx, Day 10), 99.17%; in series [2] (Day 0) it was 99.16%; in series [2] (RH 75% ± 5%, Day 5), 99.30%. Besides, the “Content of Compound A (%)” value in series [2] (RH 75% ± 5%, Day 10) is given as 99.55%; in the series “Long-term stability test” (Month 0) it was 99.53%; in the series “Long-term stability test” (Month 3), 99.32%; in “Long-term stability test” (Month 6), 99.19%; in “Long-term stability test” (Month 9) it was 98.99%; in “Long-term stability test” (Month 12) it was 99.17%. In addition, in the series “Long-term stability test” (Month 18), the “Content of Compound A (%)” value stood at 99.37%. For the same compound, the “Content of Relevant Substance (%)” value in series [2] (60° C., Day 5) was found to be 0.156%; in series [2] (60° C., Day 10), 0.142%; in series [2] (4500Lx ± 500Lx, Day 5), 0.194%; in series [2] (4500Lx ± 500Lx, Day 10), 0.159%; in series [2] (Day 0), 0.151%; in series [2] (RH 75% ± 5%, Day 5), 0.200%. Further, the “Content of Relevant Substance (%)” value was 0.171% in series [2] (RH 75% ± 5%, Day 10); 0.211% in the series “Long-term stability test” (Month 0); 0.251% in the series “Long-term stability test” (Month 3); 0.246% in the series “Long-term stability test” (Month 6); 0.248% in the series “Long-term stability test” (Month 9); 0.221% in the series “Long-term stability test” (Month 12). In “Long-term stability test” (Month 18), the “Content of Relevant Substance (%)” value was 0.221%. Besides, the Properties result was “white crystalline” in series [2] (60° C., Day 5); “white crystalline” in series [2] (60° C., Day 10); “white crystalline” in series [2] (4500Lx ± 500Lx, Day 5); “white crystalline” in series [2] (4500Lx ± 500Lx, Day 10); “white crystalline” in series [2] (Day 0); “white crystalline” in series [2] (RH 75% ± 5%, Day 5). Also, the Properties entry is on record as “white crystalline” in series [2] (RH 75% ± 5%, Day 10); “white crystalline” in “Long-term stability test” (Month 0); “white crystalline” in the series “Long-term stability test” (Month 3); “white crystalline” in the series “Long-term stability test” (Month 6); “white crystalline” in “Long-term stability test” (Month 9); “white crystalline” in the series “Long-term stability test” (Month 12). Moreover, in “Long-term stability test” (Month 18), the Properties entry was “white crystalline”. For the same compound, the “Relevant Substance and the content of Compound A (change, in words)” value in series [2] (high temperature, high humidity and light irradiation) was “substantially unchanged”; in “Long-term stability test” (long-term stability investigating test) it was “substantially unchanged”. Moreover, in the series with blood glucose (mice C57BL/6), the “effect for reducing blood glucose (in words)” value is “significant effect for reducing blood glucose”. Moreover, the “inhibition ratio for the blood glucose AUC” value was determined as 57% with blood glucose (mice C57BL/6, 1 mg/kg intragastric) and 65% in the series on blood glucose (mice C57BL/6, 3 mg/kg intragastric). Further, the “in vivo bioavailability (in words)” value in series [3] is “high”. The “apparent volume of distribution (Vd)” value in series [3] (setting [4]) came out at 6.17 L/kg. In addition, in series [3] (setting [4]), the “plasma clearance (CL)” value is 2.40 L/h/kg.
As a reminder, the bioavailability is dose-corrected exposure relative to a reference, in per cent. For `Cc1cc(N2CCC[C@@H](N)C2)c2c(n1)n(C)c(=O)n2Cc1ccccc1C#N`, the bioavailability in series [3] (both sexes, Sprague-Dawley, rat, plasma, oral, intragastric vs intravenous, 10 mg/kg (in terms of Compound A), read-out: bioavailability (F %)) is 96.6%.
